Measurements reported in patent publication US10099993B2, “Metabotropic glutamate receptor positive allosteric modulators (PAMS) and uses thereof” (Sanford-Burnham Medical Research Institute, priority 2014, dated 2018).

Tests used:
mGlu3 = mGlu3 (Rattus norvegicus (Rat), UniProt P31422); assay: mGlu3 GIRK thallium flux assay; details: for EC50: read-out: mGlu3 PAM EC50, PAM mode, test compound, then EC20 glutamate […] later in the presence of thallium, mean ± SEM; for Emax: read-out: mGlu3 PAM Max;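 on all read-outs here: kinetic fluorescence slope read shortly after thallium plus agonist addition, scaled between vehicle and maximal agonist control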
mGlu3, sequence (P31422 23-879): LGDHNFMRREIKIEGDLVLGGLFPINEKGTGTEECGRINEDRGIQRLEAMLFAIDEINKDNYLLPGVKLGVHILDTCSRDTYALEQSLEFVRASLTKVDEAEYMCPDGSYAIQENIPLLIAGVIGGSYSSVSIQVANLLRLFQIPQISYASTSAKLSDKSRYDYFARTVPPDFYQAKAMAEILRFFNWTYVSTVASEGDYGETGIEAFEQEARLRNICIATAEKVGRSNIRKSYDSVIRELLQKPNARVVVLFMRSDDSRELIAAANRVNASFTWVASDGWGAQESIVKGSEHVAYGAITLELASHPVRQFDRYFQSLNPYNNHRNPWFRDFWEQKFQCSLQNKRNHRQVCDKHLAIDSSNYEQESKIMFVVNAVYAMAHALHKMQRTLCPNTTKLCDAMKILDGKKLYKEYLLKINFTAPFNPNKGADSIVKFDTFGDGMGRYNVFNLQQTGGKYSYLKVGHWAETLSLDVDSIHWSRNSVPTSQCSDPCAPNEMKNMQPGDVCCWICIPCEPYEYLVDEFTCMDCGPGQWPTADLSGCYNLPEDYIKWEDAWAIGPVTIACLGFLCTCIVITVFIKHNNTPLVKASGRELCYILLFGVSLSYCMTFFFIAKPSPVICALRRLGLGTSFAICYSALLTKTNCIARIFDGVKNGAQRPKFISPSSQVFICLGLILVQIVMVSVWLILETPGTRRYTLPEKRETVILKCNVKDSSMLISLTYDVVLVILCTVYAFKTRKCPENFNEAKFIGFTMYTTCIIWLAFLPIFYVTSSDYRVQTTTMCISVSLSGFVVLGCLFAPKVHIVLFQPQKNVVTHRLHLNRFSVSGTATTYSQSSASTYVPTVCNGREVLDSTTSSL

mGlu2 = mGlu2 (Rattus norvegicus (Rat), UniProt P31421); assay: mGlu2 GIRK thallium flux assay; details: for EC50: read-out: mGlu2 PAM EC50, PAM mode, test compound, then EC20 glutamate […] later in the presence of thallium, mean ± SEM, at least three experiments; for Emax: read-out: mGlu2 PAM Max;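 on all read-outs here: Cell-based assay, rate of fluorescence rise right after thallium plus agonist addition read on a kinetic imaging plate reader, normalized to vehicle and maximal agonist control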
mGlu2, sequence (P31421 19-872): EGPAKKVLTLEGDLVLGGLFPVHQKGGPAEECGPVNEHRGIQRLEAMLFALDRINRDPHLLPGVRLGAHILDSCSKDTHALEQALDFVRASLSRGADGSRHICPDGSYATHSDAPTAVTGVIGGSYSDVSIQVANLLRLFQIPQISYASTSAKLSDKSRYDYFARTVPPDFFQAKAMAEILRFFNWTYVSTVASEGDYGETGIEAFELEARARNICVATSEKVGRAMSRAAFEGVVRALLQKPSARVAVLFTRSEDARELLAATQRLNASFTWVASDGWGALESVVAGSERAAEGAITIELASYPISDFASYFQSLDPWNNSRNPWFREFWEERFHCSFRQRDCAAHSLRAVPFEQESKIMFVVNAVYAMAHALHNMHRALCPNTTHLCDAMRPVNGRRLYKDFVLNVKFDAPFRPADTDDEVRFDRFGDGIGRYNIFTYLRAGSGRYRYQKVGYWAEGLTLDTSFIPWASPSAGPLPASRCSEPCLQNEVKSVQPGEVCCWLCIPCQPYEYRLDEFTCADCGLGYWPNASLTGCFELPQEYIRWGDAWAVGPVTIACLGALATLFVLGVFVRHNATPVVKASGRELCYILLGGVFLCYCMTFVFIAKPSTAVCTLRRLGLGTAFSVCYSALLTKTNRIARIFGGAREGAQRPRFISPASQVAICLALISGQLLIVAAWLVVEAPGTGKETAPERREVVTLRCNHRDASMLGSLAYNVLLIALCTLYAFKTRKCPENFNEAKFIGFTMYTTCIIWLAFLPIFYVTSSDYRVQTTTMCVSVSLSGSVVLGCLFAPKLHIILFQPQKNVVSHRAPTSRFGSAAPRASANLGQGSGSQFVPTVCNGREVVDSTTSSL

Structure (SMILES)	EC50 (mGlu3) [µM]	EC50 (mGlu2) [µM]	Emax (mGlu2) [%]	Emax (mGlu3) [%]
Cc1c(OCCCCOc2ccc(CCC(=O)O)c(O)c2)ccc(C(=O)CC(C)C)c1O [Compound 5, reference compound]	> 30	–	–	–
COC(=O)c1ccc(OCCCCOc2ccc(C(=O)CC(C)C)c(C)c2C)cc1 [Compound 14, Methyl 4-(4-(2,3-dimethyl-4-(3-methylbutanoyl)phenoxy)butoxy)benzoate]	> 30	> 30	–	–
COC(=O)c1ccc(OCCCCOc2ccc(C(=O)CC3CCCC3)c(C)c2C)cc1 [Compound 15, Methyl 4-(4-(4-(2-cyclopentylacetyl)-2,3-dimethylphenoxy)butoxy)benzoate]	> 30	> 30	–	–
COC(=O)c1ccc(OCCCCOc2ccc(C(=O)CC(C)C)c(O)c2C)cc1 [Compound 16, Methyl 4-(4-(3-hydroxy-2-methyl-4-(3-methylbutanoyl)phenoxy)butoxy)benzoate]	> 30	> 30	–	–
COC(=O)c1ccc(OCCCCOc2ccc(C(=O)CC3CCCC3)c(O)c2C)cc1 [Compound 17, Methyl 4-(4-(4-(2-cyclopentylacetyl)-3-hydroxy-2-methylphenoxy)butoxy)benzoate]	> 30	> 30	–	–
Cc1c(OCCCCOc2ccc(C(=O)O)cc2)ccc(C(=O)CC(C)C)c1C [Compound 18, 4-(4-(2,3-Dimethyl-4-(3-methylbutanoyl)phenoxy)butoxy)benzoic acid]	> 30	> 30	–	–
Cc1c(OCCCCOc2ccc(C(=O)O)cc2)ccc(C(=O)CC2CCCC2)c1C [Compound 19, 4-(4-(4-(2-Cyclopentylacetyl)-2,3-dimethylphenoxy)butoxy)benzoic acid]	> 30	> 30	–	–
Cc1c(OCCCCOc2cccc(C(=O)O)c2)ccc(C(=O)CC(C)C)c1C [Compound 22, 3-(4-(2,3-Dimethyl-4-(3-methylbutanoyl)phenoxy)butoxy)benzoic acid]	> 30	> 30	–	–
Cc1c(OCCCCOc2cccc(C(=O)O)c2)ccc(C(=O)CC2CCCC2)c1C [Compound 23, 3-(4-(4-(2-Cyclopentylacetyl)-2,3-dimethylphenoxy)butoxy)benzoic acid]	> 30	> 30	–	–
Cc1c(OCCCCOc2ccccc2C(=O)O)ccc(C(=O)CC2CCCC2)c1C [Compound 27, 2-(4-(4-(2-Cyclopentylacetyl)-2,3-dimethylphenoxy)butoxy)benzoic acid]	> 30	–	–	–
Cc1c(OCCCCOc2ccccc2C(=O)O)ccc(C(=O)CC(C)C)c1O [Compound 28, 2-(4-(3-Hydroxy-2-methyl-4-(3-methylbutanoyl)phenoxy)butoxy)benzoic acid]	> 30	–	–	–
Cc1c(OCCCCOc2ccccc2C(=O)O)ccc(C(=O)CC2CCCC2)c1O [Compound 29, 2-(4-(4-(2-Cyclopentylacetyl)-3-hydroxy-2-methylphenoxy)butoxy)benzoic acid]	> 30	–	–	–
Cc1c(OCCCCOc2ccc(C(=O)O)c(Cl)c2)ccc(C(=O)CC(C)C)c1C [Compound 30, 2-Chloro-4-(4-(2,3-dimethyl-4-(3-methylbutanoyl)phenoxy)butoxy)benzoic acid]	> 30	–	–	–
Cc1c(OCCCCOc2ccc(F)c(C(=O)O)c2)ccc(C(=O)CC(C)C)c1C [Compound 34, 5-(4-(2,3-Dimethyl-4-(3-methylbutanoyl)phenoxy)butoxy)-2-fluorobenzoic acid]	> 30	> 30	–	–
Cc1c(OCCCCOc2ccc(F)c(C(=O)O)c2)ccc(C(=O)CC2CCCC2)c1C [Compound 35, 5-(4-(4-(2-Cyclopentylacetyl)-2,3-dimethylphenoxy)butoxy)-2-fluorobenzoic acid]	> 30	> 30	–	–
COc1cc(C(=O)O)ccc1OCCCCOc1ccc(C(C)=O)c(O)c1C [Compound 52, 4-(4-(4-Acetyl-3-hydroxy-2-methylphenoxy)butoxy)-3-methoxybenzoic acid]	> 30	–	–	–
COc1ccc(C(=O)O)cc1OCCCCOc1ccc(C(C)=O)c(O)c1C [Compound 53, 3-(4-(4-Acetyl-3-hydroxy-2-methylphenoxy)butoxy)-4-methoxybenzoic acid]	> 30	–	–	–
CC(=O)c1ccc(OCCCCOc2cccc(C(=O)O)c2C)c(C)c1O [Compound 54, 3-(4-(4-Acetyl-3-hydroxy-2-methylphenoxy)butoxy)-2-methylbenzoic acid]	> 30	–	–	–
CC(=O)c1ccc(OCCCCOc2ccc(F)c(C(=O)O)c2)c(C)c1O [Compound 55, 5-(4-(4-Acetyl-3-hydroxy-2-methylphenoxy)butoxy)-2-fluorobenzoic acid]	> 30	–	–	–
CC(=O)c1ccc(OCCCCOc2ccc(C(=O)O)cc2C)c(C)c1O [Compound 56, 4-(4-(4-Acetyl-3-hydroxy-2-methylphenoxy)butoxy)-3-methylbenzoic acid]	> 30	–	–	–
CCC(=O)c1ccc(OCCCCOc2ccc(C(=O)O)cc2OC)c(C)c1O [Compound 57, 4-(4-(3-Hydroxy-2-methyl-4-propionylphenoxy)butoxy)-3-methoxybenzoic acid]	> 30	–	–	–

Structure (SMILES)	EC50 (mGlu3) [µM]	EC50 (mGlu2) [µM]	Emax (mGlu2) [%]	Emax (mGlu3) [%]
CCC(=O)c1ccc(OCCCCOc2cccc(C(=O)O)c2C)c(C)c1O [Compound 59, 3-(4-(3-Hydroxy-2-methyl-4-propionylphenoxy)butoxy)-2-methylbenzoic acid]	> 30	–	–	–
CCC(=O)c1ccc(OCCCCOc2ccc(C(=O)O)cc2C)c(C)c1O [Compound 61, 4-(4-(3-Hydroxy-2-methyl-4-propionylphenoxy)butoxy)-3-methylbenzoic acid]	> 30	–	–	–
COc1cc(C(=O)O)ccc1OCCCCOc1ccc(C(=O)C(C)C)c(O)c1C [Compound 62, 4-(4-(3-Hydroxy-4-isobutyryl-2-methylphenoxy)butoxy)-3-methoxybenzoic acid]	> 30	–	–	–
Cc1c(OCc2cccc(-c3occc3C(=O)O)c2)ccc(C(=O)CC(C)(C)C)c1O [Compound 178, 2-(3-((4-(3,3-Dimethylbutanoyl)-3-hydroxy-2-methylphenoxy)methyl)phenyl)furan-3-carboxylic acid]	2.87 ± 1.12	0.409 ± 0.105	81.4 ± 10.1	67.7 ± 11.7
Cc1c(OCc2cccc(-c3cncc(C(=O)O)c3)c2)ccc(C(=O)CC(C)(C)C)c1O [Compound 179, 5-(3-((4-(3,3-Dimethylbutanoyl)-3-hydroxy-2-methylphenoxy)methyl)phenyl)nicotinic acid]	1.01 ± 0.02	0.848 ± 0.009	100 ± 2.9	102 ± 3.5
Cc1c(OCc2cccc(-c3cnccc3C(=O)O)c2)ccc(C(=O)CC(C)(C)C)c1O [Compound 180, 3-(3-((4-(3,3-Dimethylbutanoyl)-3-hydroxy-2-methylphenoxy)methyl)phenyl)isonicotinic acid]	> 30	1.46 ± 0.02	88.4 ± 1.5	30.6 ± 9.2
Cc1c(OCc2cccc(-c3cnc(C(=O)O)cn3)c2)ccc(C(=O)CC(C)(C)C)c1O [Compound 181, 5-(3-((4-(3,3-Dimethylbutanoyl)-3-hydroxy-2-methylphenoxy)methyl)phenyl)pyrazine-2-carboxylic acid]	4.28 ± 0.064	2.134 ± 0.008	105 ± 3.4	106 ± 2.1
Cc1c(OCCCCOc2ccccn2)ccc(C(=O)CC(C)C)c1C [Compound 183]	> 30	> 10	–	–
Cc1c(OCCCCSc2ccccn2)ccc(C(=O)CC(C)C)c1O [Compound 184]	> 30	> 10	–	–
Cc1c(OCCCCOc2ccccn2)ccc(C(=O)CC(C)C)c1O [Compound 185]	> 30	2.79 ± 0.102	66.3 ± 0.6	22.4 ± 4.3
Cc1c(OCCCCOc2ccccn2)ccc(C(=O)CC2CCCC2)c1O [Compound 186]	> 30	> 10	–	–
Cc1c(OCCCCOCc2cccc(-c3cccc(C(=O)O)c3)c2)ccc(C(=O)CC(C)(C)C)c1O [Compound 187, 3′-((4-(4-(3,3-Dimethylbutanoyl)-3-hydroxy-2-methylphenoxy)butoxy)methyl)-[1,1′-biphenyl]-3-carboxylic acid]	3.07 ± 0.632	1.57 ± 0.297	93.4 ± 3.4	74.1 ± 7.8
Cc1c(OCCCCSc2ccncc2)ccc(C(=O)CC2CCCC2)c1C [Compound 188]	> 30	> 30	–	–
Cc1c(OCCCCSc2ccncc2)ccc(C(=O)CC(C)C)c1C [Compound 189]	> 30	> 30	–	–
CCCc1c(OCCCCOc2ccc(C(=O)O)cc2OC)ccc(C(C)=O)c1O [Compound 190, 4-(4-(4-Acetyl-3-hydroxy-2-propylphenoxy)butoxy)-3-methoxybenzoic acid]	–	–	64.9 ± 5.1	12.1 ± 12.8
CCCc1c(OCCCCOc2ccc(C(=O)O)cc2C)ccc(C(C)=O)c1O [Compound 191, 4-(4-(4-Acetyl-3-hydroxy-2-propylphenoxy)butoxy)-3-methylbenzoic acid]	–	–	43.8 ± 5.4	0.1 ± 7.7
CC(C)(C)CC(=O)c1ccc(OCc2cccc(-c3cccc(C(=O)O)c3)c2)c(I)c1O [Compound 192, 3′-((4-(3,3-Dimethylbutanoyl)-3-hydroxy-2-iodophenoxy)methyl)-[1,1′-biphenyl]-3-carboxylic acid]	–	–	82 ± 5.1	62.6 ± 9.7
Cc1c(OCCCCOc2ccc(C(=O)C(C)C)c(O)c2C)cccc1C(=O)O [compound 64, 3-(4-(3-Hydroxy-4-isobutyryl-2-methylphenoxy)butoxy)-2-methylbenzoic acid]	> 30	–	–	–
Cc1cc(C(=O)O)ccc1OCCCCOc1ccc(C(=O)C(C)C)c(O)c1C [compound 66, 4-(4-(3-Hydroxy-4-isobutyryl-2-methylphenoxy)butoxy)-3-methylbenzoic acid]	> 30	–	–	–
COc1ccc(C(=O)O)cc1-c1cncc(COc2ccc(C(=O)CC(C)(C)C)c(O)c2C)c1 [compound 160, 3-(5-((4-(3,3-Dimethylbutanoyl)-3-hydroxy-2-methylphenoxy)methyl)pyridin-3-yl)-4-methoxybenzoic acid]	–	–	–	110 ± 2.4
